Data taken from ChEMBL document CHEMBL3421554, “Discovery of HCV NS5B thumb site I inhibitors: core-refining from benzimidazole to indole scaffold” (Eur J Med Chem, 2015).
Values after ≈ are worked out from the molar mass of the structure shown. Values belong to the molecule of their own block, whether it stands above or below them.

Experiments:
Genome polyprotein = Genome polyprotein (Hepatitis C virus genotype 1b (isolate BK) (HCV), UniProt P26663); experiment: Inhibition of HCV genotype 1b BK NS5B expressed in Escherichia coli BL21 (DE3) after 1 hr
[1] = Inhibition of N-terminally tagged full-length HCV NS5B using biotinylated oligo(rU12), poly(rA) as template-primer assessed as incorporation of [3H]-UTP after 90 mins by Scintillation Proximity Assay; design: species or system Hepacivirus hominis
Hepatitis C virus [2] = experiment: Antiviral activity against HCV infected in human HuH7 cells assessed as inhibition of viral replication after 72 hrs by RT-PCR analysis; assay type: functional, organism-based, Hepacivirus hominis; conditions: Huh-7, 72 h
[3] = Octanol-buffer distribution co-efficient, log D of the compound at pH 7.4 by shaking-flask method; assay type: physicochemical
[4] = Solubility of the compound in phosphate buffer at pH 7.2; assay type: physicochemical
Hepatitis C virus [5] = experiment: Antiviral activity against HCV assessed as inhibition of viral replication by cell-based assay; assay type: functional, organism-based, Hepacivirus hominis
[6] = Inhibition of N-terminal hexa-histidine tagged HCV NS5B expressed in baculovirus infected insect cells using 12 nucleotide RNA oligo-uridylate primer and complementary poly-adenylate template assessed as incorporation of UMP-[5,6-3H] into the chain elongated from oligo-U primer by TopCount analysis; design: species or system Hepacivirus hominis
Hepatitis C virus [7] = experiment: Antiviral activity against HCV genotype 1b Con1 infected in human HuH7 cells assessed as inhibition of viral replication; assay type: functional, cell-based, Hepacivirus hominis; conditions: genotype 1b Con1, Huh-7
[8] = Inhibition of N-terminal hexa-histidine tagged full-length HCV genotype 1b NS5B expressed in baculovirus-infected cells using 5'-biotinylated oligo(rU12), poly(rA) as template-primer assessed as incorporation of [3H]-UTP after 90 mins by Scintillation Proximity Assay; design: species or system Hepatitis C virus subtype 1b

Chain of Genome polyprotein (P26663 2420-3010 limits assumed): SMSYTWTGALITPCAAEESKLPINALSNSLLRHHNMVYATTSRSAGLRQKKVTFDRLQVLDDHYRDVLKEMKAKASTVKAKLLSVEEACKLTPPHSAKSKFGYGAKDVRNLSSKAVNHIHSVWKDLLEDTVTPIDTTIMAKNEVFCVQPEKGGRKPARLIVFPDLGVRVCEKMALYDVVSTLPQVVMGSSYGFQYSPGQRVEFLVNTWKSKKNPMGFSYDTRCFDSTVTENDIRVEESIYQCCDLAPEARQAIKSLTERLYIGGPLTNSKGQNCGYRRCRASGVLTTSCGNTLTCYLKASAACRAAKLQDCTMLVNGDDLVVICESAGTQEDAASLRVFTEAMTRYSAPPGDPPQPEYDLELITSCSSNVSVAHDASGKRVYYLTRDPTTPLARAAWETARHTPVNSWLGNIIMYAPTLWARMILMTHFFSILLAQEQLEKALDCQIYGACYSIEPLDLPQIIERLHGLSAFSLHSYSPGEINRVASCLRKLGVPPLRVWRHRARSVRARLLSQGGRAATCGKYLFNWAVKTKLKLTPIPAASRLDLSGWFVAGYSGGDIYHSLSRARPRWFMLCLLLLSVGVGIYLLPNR

SMILES: O=C(N[C@H](Cc1c[nH]c2ccc(O)cc12)c1cscn1)c1ccc2c(c1)nc(-c1ccoc1)n2C1CCCCC1
IC50 [1]: 300 nM
EC50 (Hepatitis C virus [2]): 1.7 µM

SMILES: C[C@@H](NC(=O)c1ccc2c(c1)nc(-c1ccoc1)n2C1CCCCC1)C(=O)Nc1ccc(/C=C/C(=O)O)cc1
IC50 [1]: 130 nM
EC50 (Hepatitis C virus [2]): 6.9 µM
logD [3]: 2.2
solubility [4]: 171 µM (≈ 90 µg/mL)

SMILES: COc1ccc(CCNC(=O)c2ccc3c(c2)nc(-c2ccccn2)n3C2CCCCC2)cc1OC
IC50 [6]: 12 µM

SMILES: O=C(O)/C=C/c1ccc(NC(=O)C2(NC(=O)c3ccc4c(c3)nc(-c3ccoc3)n4C3CCCCC3)CCCC2)cc1
EC50 (Hepatitis C virus [5]): 550 nM

SMILES: O=C(O)COc1ccc2[nH]cc(C[C@H](NC(=O)c3ccc4c(c3)nc(-c3ccoc3)n4C3CCCCC3)C(=O)O)c2c1
IC50 [1]: 27 nM

SMILES: CC(C)(NC(=O)c1ccc2c(c1)nc(-c1ccoc1)n2C1CCCCC1)C(=O)Nc1ccc(/C=C/C(=O)O)cc1
IC50 [8]: 40 nM

SMILES: O=C(O)c1ccc2c(c1)nc(-c1ccoc1)n2C1CCCCC1
IC50 [6]: 1.6 µM

Now from value to molecule:

IC50 (Genome polyprotein): 58 nM
SMILES: CN(C)C(=O)Cn1c(-c2ccccc2)c(C2CCCCC2)c2sc(C(=O)O)cc21

EC50 (Hepatitis C virus [5]): 800 nM
SMILES: O=C(O)c1ccc2c(C3CCCCC3)c(-c3ccccc3)n(CC(=O)N3CCOCC3)c2c1

IC50 (Genome polyprotein): 10 nM
EC50 (Hepatitis C virus [7]): 130 nM
SMILES: CC(C)N1CCC(N(C)C(=O)Cn2c(-c3ccccc3)c(C3CCCCC3)c3sc(C(=O)O)cc32)C1 (centres undefined)

IC50 (Genome polyprotein): 11 nM
EC50 (Hepatitis C virus [7]): 510 nM
SMILES: CC(C)CNCc1c(C(=O)O)sc2c(C3CCCCC3)c(-c3ccccc3)n(CC(=O)N(C)C3CCN(C(C)C)C3)c12 (centres undefined)

IC50 (Genome polyprotein): 19 nM
EC50 (Hepatitis C virus [7]): 150 nM
SMILES: CC(C)N1CC[C@@H](N2CCn3c(c(C4CCCCC4)c4sc(C(=O)O)cc43)-c3ccccc3C2)C1
